# Numbered stars: 1 amine (or outer) side, 2 acyl side, 3 side chain; on linkers, the order of the positions; unused ones are H or OH. Bridge positions count the residues as written; N and C are the ends. Square brackets hold non-standard residues; d marks the D form. Peptide text beside a SMILES is read from it. * marks the point of attachment. ξ: configuration not given here. Phe(4-CH2CH2COOH) = N[C@@H](Cc1ccc(CCC(=O)O)cc1)C(=O)O; Phe(3-CF3) = N[C@@H](Cc1cccc(C(F)(F)F)c1)C(=O)O; Phe(4-COOH) = N[C@@H](Cc1ccc(C(=O)O)cc1)C(=O)O; Bip = N[C@@H](Cc1ccc(-c2ccccc2)cc1)C(=O)O; NH(CH2)14COOH = O=C(O)CCCCCCCCCCCCCCN*; Phe(3-Me) = Cc1cccc(C[C@H](N)C(=O)O)c1; Phe(4-F) = N[C@@H](Cc1ccc(F)cc1)C(=O)O; γGlu = O=C(O)[C@H](CCC(=O)[*:2])N[*:1]; βAsp = O=C(O)[C@H](CC(=O)[*:2])N[*:1]; ξBip = NC(Cc1ccc(-c2ccccc2)cc1)C(=O)O; NH(CH2)12COOH = O=C(O)CCCCCCCCCCCCN*; Val(3-OH) = CC(C)(O)[C@H](N)C(=O)O; hArg = N=C(N)NCCCC[C@H](N)C(=O)O; Cha = N[C@@H](CC1CCCCC1)C(=O)O; Cit = NC(=O)NCCC[C@H](N)C(=O)O; Ile(3ξ) = CCC(C)[C@H](N)C(=O)O; Thr(3ξ) = CC(O)[C@H](N)C(=O)O; dOrn = NCCC[C@@H](N)C(=O)O; Carboxymethyl = O=C(O)C*; Orn = NCCC[C@H](N)C(=O)O; Aun = NCCCCCCCCCCC(=O)O; Dab = NCC[C@H](N)C(=O)O; Dap = NC[C@H](N)C(=O)O; ξD = NC(CC(=O)O)C(=O)O; AEEA = NCCOCCOCC(=O)O
# Target: T1, PD-1/PD-L1 interaction (PE-labeled human PD-L1-Ig binding to Jurkat cell line over-expressing human PD-1) (Homo sapiens, UniProt Q15116)
# T1 construct: expressed in transfected cells; host or cells: Jurkat
# T1 sequence (Q15116 25-288): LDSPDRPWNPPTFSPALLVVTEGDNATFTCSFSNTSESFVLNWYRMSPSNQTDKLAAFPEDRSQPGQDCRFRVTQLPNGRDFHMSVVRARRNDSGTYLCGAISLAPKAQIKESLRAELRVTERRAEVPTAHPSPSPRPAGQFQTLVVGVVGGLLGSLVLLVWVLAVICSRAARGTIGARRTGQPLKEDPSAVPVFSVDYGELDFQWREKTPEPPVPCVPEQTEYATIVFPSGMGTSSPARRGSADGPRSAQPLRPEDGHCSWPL
# Experiment: Jurkat-PD-1 Cell Binding High-Content Screening Assay (CBA)
# Type: cell-based
# Details: Jurkat cell line over-expressing human PD-1; PE-labeled PD-L1-Ig 20 nM final; read-out: Jurkat hPD1-PDL1 IC50
# Procedure, shortened: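 First, compound is added to PD-1-expressing Jurkat cells in serum-containing DMEM and left 2 h at 37° C. Next, PE-conjugated PD-L1-Ig is introduced at 20 nM final concentration for 1 hour. Finally, cells are fixed in 4% paraformaldehyde with Hoechst 33342, washed and imaged.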
row,IC50 [nM],Compound
1,23.6,Cc1cccc(C[C@@H]2NC(=O)[C@H](CC(=O)O)NC(=O)[C@H](Cc3ccc(CCC(=O)O)cc3)NC(=O)[C@H](CCCNC(=N)N)NC(=O)CSC[C@@H](C(=O)N[C@@H](CCCN)C(=O)N[C@@H](CO)C(=O)NCCCCCCCCCCC(=O)O)NC(=O)[C@H](CCC(=O)O)NC(=O)[C@H](C(C)C)NC(=O)[C@H](CC3CCCCC3)NC(=O)[C@H](CCN)NC(=O)[C@@H](CC(C)C)NC(=O)[C@H](CCN)NC(=O)[C@H](CCCNC(N)=O)NC(=O)[C@H](Cc3ccc(-c4ccccc4)cc3)NC(=O)[C@H](C(C)C)NC2=O)c1 [Compound 2814] ({CH2CO}-R[Phe(4-CH2CH2COOH)]D[Phe(3-Me)]V[Bip][Cit][Dab][dL][Dab][Cha]VEC[Orn]S[Aun]-OH; thioether N-14)
2,5.6,Cc1cccc(C[C@@H]2NC(=O)[C@H](CC(=O)O)NC(=O)[C@H](Cc3ccc(OCC(=O)O)cc3)NC(=O)[C@H](CN)NC(=O)CSC[C@@H](C(=O)NCCCCCCCCCCC(=O)O)NC(=O)[C@H](CCCN)NC(=O)[C@H](C(C)C)NC(=O)[C@H](CC3CCCCC3)NC(=O)[C@H](CCN)NC(=O)[C@@H](CC(C)C)NC(=O)[C@H](CCCN)NC(=O)[C@H](C(C)C)NC(=O)[C@H](Cc3ccc(-c4ccccc4)cc3)NC(=O)[C@H](C(C)C)NC2=O)c1 [Compound 2605] ({CH2CO}-[Dap]Y(Carboxymethyl)D[Phe(3-Me)]V[Bip]V[Orn][dL][Dab][Cha]V[Orn]C[Aun]-OH; thioether N-14)
3,99.8,CCC(C)[C@@H]1NC(=O)[C@H](Cc2ccc(-c3ccccc3)cc2)NC(=O)[C@H](C(C)C)NC(=O)[C@H](Cc2c[nH]c3ccccc23)NC(=O)[C@H](CC(=O)O)NC(=O)[C@H](Cc2ccc(OCC(=O)O)cc2)NC(=O)[C@H](C(C)O)NC(=O)CSC[C@@H](C(=O)N[C@H](CCCN)C(=O)NCCOCCOCC(=O)NCCCCCCCCCCC(=O)O)NC(=O)[C@H](CO)NC(=O)[C@H](C(C)C)NC(=O)[C@H](CC(C)C)NC(=O)[C@H](CCN)NC(=O)[C@@H](CC(C)C)NC(=O)[C@H](CCCN)NC1=O (stereo partly drawn) [Compound 3090] ({CH2CO}-[Thr(3ξ)]Y(Carboxymethyl)DWV[Bip][Ile(3ξ)][Orn][dL][Dab]LVSC[dOrn][AEEA][Aun]-OH; thioether N-14)
4,5,Cc1cccc(C[C@@H]2NC(=O)[C@H](CC(=O)O)NC(=O)[C@H](Cc3ccc(OCC(=O)O)cc3)NC(=O)[C@H](CN)NC(=O)CSC[C@@H](C(=O)N[C@@H](C)C(=O)N[C@@H](CC(=O)NCC(=O)NCCCCCCCCCCC(=O)O)C(=O)O)NC(=O)[C@H]([C@@H](C)O)NC(=O)[C@H](C(C)C)NC(=O)[C@H](CC3CCCCC3)NC(=O)[C@H](CCN)NC(=O)[C@@H](CC(C)C)NC(=O)[C@H](CCCN)NC(=O)[C@H](CCCNC(N)=O)NC(=O)[C@H](Cc3ccc(-c4ccccc4)cc3)NC(=O)[C@H](C(C)C)NC2=O)c1 [Compound 1012] ({CH2CO}-[Dap]Y(Carboxymethyl)D[Phe(3-Me)]V[Bip][Cit][Orn][dL][Dab][Cha]VTCA[βAsp]G[Aun]-OH; thioether N-14)
5,8.9,Cc1cccc(C[C@@H]2NC(=O)[C@H](CC(=O)O)NC(=O)[C@H](Cc3ccc(OCC(=O)O)cc3)NC(=O)[C@H](CN)NC(=O)CSC[C@@H](C(=O)N[C@@H](CCN)C(=O)NCCCCCCCCCCC(=O)O)NC(=O)[C@@H](CCC(N)=O)NC(=O)[C@H](C(C)C)NC(=O)[C@H](CC3CCCCC3)NC(=O)[C@H](CCN)NC(=O)[C@@H](CC(C)C)NC(=O)[C@H](CCCN)NC(=O)[C@H](Cc3ccc(O)cc3)NC(=O)[C@H](Cc3ccc(-c4ccccc4)cc3)NC(=O)[C@H](Cc3ccc(O)cc3)NC2=O)c1 [Compound 2715] ({CH2CO}-[Dap]Y(Carboxymethyl)D[Phe(3-Me)]Y[Bip]Y[Orn][dL][Dab][Cha]V[dQ]C[Dab][Aun]-OH; thioether N-14)
6,6.4,Cc1cccc(C[C@@H]2NC(=O)[C@H](CC(=O)O)NC(=O)[C@H](Cc3ccc(OCC(=O)O)cc3)NC(=O)[C@H](CCN)NC(=O)CSC[C@@H](C(=O)N[C@@H](CCN)C(=O)NCCOCCOCC(=O)N[C@@H](CC(=O)O)C(=O)NCCOCCOCC(=O)N[C@@H](CCC(=O)NCC(=O)NCCCCCCCCCCCCC(=O)O)C(=O)O)NC(=O)[C@H](Cc3cnc[nH]3)NC(=O)[C@H](C(C)(C)O)NC(=O)[C@H](CC3CCCCC3)NC(=O)[C@H](CCN)NC(=O)[C@@H](CC(C)C)NC(=O)[C@H](CCCN)NC(=O)[C@H](Cc3ccc(C(=O)O)cc3)NC(=O)[C@H](Cc3ccc(-c4ccccc4)cc3)NC(=O)[C@H](Cc3ccc(C(=O)O)cc3)NC2=O)c1 [Compound 1285] ({CH2CO}-[Dab]Y(Carboxymethyl)D[Phe(3-Me)][Phe(4-COOH)][Bip][Phe(4-COOH)][Orn][dL][Dab][Cha][Val(3-OH)]HC[Dab][AEEA]D[AEEA][γGlu]G-{NH(CH2)12COOH}; thioether N-14)
7,9.7,Cc1cccc(C[C@@H]2NC(=O)C(CC(=O)O)NC(=O)[C@H](Cc3ccc(OCC(=O)O)cc3)NC(=O)[C@H](CN)NC(=O)CSC[C@@H](C(=O)NCCOCCOCC(=O)N[C@@H](CCCN)C(=O)NCCCCCCCCCCC(=O)O)NC(=O)[C@H]([C@@H](C)O)NC(=O)[C@H](C(C)C)NC(=O)[C@H](CC3CCCCC3)NC(=O)[C@H](CCN)NC(=O)[C@@H](CC(C)C)NC(=O)[C@H](CCCN)NC(=O)[C@H](CCCNC(N)=O)NC(=O)C(Cc3ccc(-c4ccccc4)cc3)NC(=O)[C@H](C(C)C)NC2=O)c1 (stereo partly drawn) [Compound 1178] ({CH2CO}-[Dap]Y(Carboxymethyl)[ξD][Phe(3-Me)]V[ξBip][Cit][Orn][dL][Dab][Cha]VTC[AEEA][Orn][Aun]-OH; thioether N-14)
8,9.2,CC(C)C[C@H]1NC(=O)[C@H](CN)NC(=O)[C@H](C(C)C)NC(=O)[C@H](Cc2ccc(-c3ccccc3)cc2)NC(=O)[C@H](C(C)C)NC(=O)[C@H](Cc2c[nH]c3ccccc23)NC(=O)[C@H](CC(=O)O)NC(=O)[C@H](Cc2ccc(OCC(=O)O)cc2)NC(=O)[C@H](CCCCNC(=N)N)NC(=O)CSC[C@@H](C(=O)NCCOCCOCC(=O)NCCCCCCCCCCC(=O)O)NC(=O)[C@H](CCCCN)NC(=O)[C@H](C(C)C)NC(=O)[C@H](CC2CCCCC2)NC(=O)[C@H](CCN)NC1=O [Compound 3266] ({CH2CO}-[hArg]Y(Carboxymethyl)DWV[Bip]V[Dap][dL][Dab][Cha]VKC[AEEA][Aun]-OH; thioether N-14)
9,20,Cc1cccc(C[C@@H]2NC(=O)[C@H](CC(=O)O)NC(=O)[C@H](Cc3ccc(OCC(=O)O)cc3)NC(=O)[C@H](CN)NC(=O)CSC[C@@H](C(=O)N[C@@H](CCN)C(=O)NCCOCCOCC(=O)NCCCCCCCCCCC(=O)O)NC(=O)[C@H](CCC(=O)O)NC(=O)[C@H](C(C)C)NC(=O)[C@H](CC(C)C)NC(=O)[C@H](CCN)NC(=O)[C@@H](CC(C)C)NC(=O)[C@H](CCCN)NC(=O)[C@H](Cc3ccc(OCC(=O)O)cc3)NC(=O)[C@H](Cc3ccc(-c4ccccc4)cc3)NC(=O)[C@H](Cc3ccc(OCC(=O)O)cc3)NC2=O)c1 [Compound 1257] ({CH2CO}-[Dap]Y(Carboxymethyl)D[Phe(3-Me)]Y(Carboxymethyl)[Bip]Y(Carboxymethyl)[Orn][dL][Dab]LVEC[Dab][AEEA][Aun]-OH; thioether N-14)
10,19.6,Cc1cccc(C[C@@H]2NC(=O)[C@H](CC(=O)O)NC(=O)[C@H](Cc3ccc(OCC(=O)O)cc3)NC(=O)[C@H](CCCNC(=N)N)NC(=O)CSC[C@@H](C(=O)N[C@@H](CCCN)C(=O)NCCCCCCCCCCC(=O)O)NC(=O)[C@H](CCC(N)=O)NC(=O)[C@H](C(C)C)NC(=O)[C@H](CC3CCCCC3)NC(=O)[C@H](CCN)NC(=O)[C@@H](CC(C)C)NC(=O)[C@H](CCN)NC(=O)[C@H](Cc3ccc(OCC(=O)O)cc3)NC(=O)[C@H](Cc3ccc(-c4ccccc4)cc3)NC(=O)[C@H](Cc3ccc(OCC(=O)O)cc3)NC2=O)c1 [Compound 2855] ({CH2CO}-RY(Carboxymethyl)D[Phe(3-Me)]Y(Carboxymethyl)[Bip]Y(Carboxymethyl)[Dab][dL][Dab][Cha]VQC[Orn][Aun]-OH; thioether N-14)
11,815,CC(C)C[C@@H]1NC(=O)CSC[C@@H](C(=O)N[C@@H](CCN)C(=O)NCCCCCCCCCCCCCCC(=O)O)NC(=O)[C@H](CCC(=O)O)NC(=O)[C@H](C(C)(C)O)NC(=O)[C@H](CC2CCCCC2)NC(=O)[C@H](CCN)NC(=O)[C@@H](CC(C)C)NC(=O)[C@H](CCCN)NC(=O)[C@H](Cc2ccc(OCC(=O)O)cc2)NC(=O)[C@H](Cc2ccc(-c3ccccc3)cc2)NC(=O)[C@H](Cc2ccc(OCC(=O)O)cc2)NC(=O)[C@H](Cc2cccc(C(F)(F)F)c2)NC(=O)[C@H](CC(=O)O)NC(=O)[C@H](Cc2ccc(OCC(=O)O)cc2)NC1=O [Compound 3874] ({CH2CO}-LY(Carboxymethyl)D[Phe(3-CF3)]Y(Carboxymethyl)[Bip]Y(Carboxymethyl)[Orn][dL][Dab][Cha][Val(3-OH)]EC[Dab]-{NH(CH2)14COOH}; thioether N-14)
12,6.5,Cc1cccc(C[C@@H]2NC(=O)[C@H](CC(=O)O)NC(=O)[C@H](Cc3ccc(OCC(=O)O)cc3)NC(=O)[C@H](Cc3ccc(F)cc3)NC(=O)CSC[C@@H](C(=O)N[C@@H](CCN)C(=O)NCCOCCOCC(=O)NCCOCCOCC(=O)NCCCCCCCCCCC(=O)O)NC(=O)[C@H](CCC(=O)O)NC(=O)[C@H](C(C)(C)O)NC(=O)[C@H](CC3CCCCC3)NC(=O)[C@H](CCN)NC(=O)[C@@H](CC(C)C)NC(=O)[C@H](CCCN)NC(=O)[C@H](Cc3ccc(C(=O)O)cc3)NC(=O)[C@H](Cc3ccc(-c4ccccc4)cc3)NC(=O)[C@H](Cc3ccc(C(=O)O)cc3)NC2=O)c1 [Compound 3768] ({CH2CO}-[Phe(4-F)]Y(Carboxymethyl)D[Phe(3-Me)][Phe(4-COOH)][Bip][Phe(4-COOH)][Orn][dL][Dab][Cha][Val(3-OH)]EC[Dab][AEEA][AEEA][Aun]-OH; thioether N-14)
